The results in this text go back to ChEMBL document CHEMBL2150933 (J Med Chem, 2012).

Format in all cases: functional
The subject of test [1] is A549. The experiment in a line: Cytotoxicity against human A549 cells after 48 hrs by SRB assay. Particulars: A549, 48 h. On the technique in general: Sulforhodamine B stains cellular protein and so reports cell mass.
In test [2] the test system is COLO 205. Nature of the test: Cytotoxicity against human COLO205 cells after 48 hrs by SRB assay. The note with it: COLO 205, 48 h.
The subject of test [3] is SF-295. The experiment in a line: Cytotoxicity against human SF295 cells after 48 hrs by SRB assay. Particulars: SF-295, 48 h, read-out: GI50.
Test [4] relates to U-251. Nature of the test: Cytotoxicity against human U251 cells after 48 hrs by SRB assay. Particulars: U-251, 48 h, read-out: GI50.
For test [5], the system named is SK-MEL-5. Nature of the test: Cytotoxicity against human SK-MEL-5 cells after 48 hrs by SRB assay. Particulars: SK-MEL-5, 48 h, read-out: GI50.
For test [6], the system named is IGROV-1. The experiment in a line: Cytotoxicity against human IGROV1 cells after 48 hrs by SRB assay. The note with it: IGROV-1, 48 h, read-out: GI50.
Test [7] has as its system OVCAR-8. The experiment in a line: Cytotoxicity against human OVCAR8 cells after 48 hrs by SRB assay. The note with it: OVCAR-8, 48 h, read-out: GI50.
Test [8] deals with MDA-MB-231. The experiment in a line: Cytotoxicity against human MDA-MB-231 cells after 48 hrs by SRB assay. The note with it: MDA-MB-231, 48 h.
Test [9] concerns BXPC-3. Nature of the test: Cytotoxicity against human BxPC3 cells after 72 hrs by MTT assay. Particulars: BXPC-3, 72 h.
The test system of test [10] is COLO 205. Nature of the test: Cytotoxicity against human COLO205 cells after 72 hrs by MTT assay. Particulars: COLO 205, 72 h.
Test [11] concerns A549. Nature of the test: Cytotoxicity against human A549 cells after 72 hrs by MTT assay. Particulars: A549, 72 h. Background: Tetrazolium dyes change colour on reduction, which living cells bring about.
Test [12] can be described thus: Cytotoxicity against human 786-O cells after 48 hrs by SRB assay. The note with it: 786-0, 48 h.

Take `CO[C@H](C(=O)[C@@H](O)[C@@H](C)O)[C@@H]1Cc2cc3cc(O[C@H]4C[C@@H](O[C@@H]5C[C@@H](O)[C@H](O)[C@@H](C)O5)[C@H](O)[C@@H](C)O4)c(C)c(O)c3c(O)c2C(=O)[C@H]1O[C@H]1C[C@@H](O[C@@H]2C[C@@H](O)[C@@H](O[C@@H]3C[C@](C)(O)[C@H](O)[C@@H](C)O3)[C@@H](C)O2)[C@H](O)[C@@H](C)O1` [PLICAMYCIN]: the GI50 came to 79 nM in [1] (read-out: GI50); 63 nM in test [2] (read-out: GI50); 79 nM in test [3]; 63 nM in test [4]; 63 nM in test [5]; 158 nM in [6]. In addition, the GI50 in test [7] was determined as 79 nM; in [8] (read-out: GI50), 166 nM.

Take `CO[C@H](C(=O)C(C)=O)[C@@H]1Cc2cc3cc(O[C@H]4C[C@@H](O[C@H]5C[C@@H](O)[C@H](O)[C@@H](C)O5)[C@H](O)[C@@H](C)O4)c(C)c(O)c3c(O)c2C(=O)[C@H]1O[C@H]1C[C@@H](O[C@H]2C[C@@H](O)[C@H](O)[C@@H](C)O2)[C@H](O)[C@@H](C)O1`: the GI50 was 170 nM in [1] (read-out: pGI50 (converted)); 300 nM in test [9]; 300 nM in [10]; 300 nM in test [11]; 83.2 nM in [2] (read-out: pGI50 (converted)); 166 nM in test [12]. Further, in [8] (read-out: pGI50 (converted)), the GI50 is 240 nM.
